The results in this text go back to patent US20260374754A1, “N-((ISOQUINOLIN-6-YL)METHYL)-1H-PYRAZOLE-4-CARBOXAMIDE DERIVATIVES AS PLASMA KALLIKREIN INHIBITORS FOR THE TREATMENT OF HEREDITARY ANGIODEMA” (Takeda Pharmaceutical Company Limited, priority 2022, published 2026).

Counter-ions that a name gives are not always drawn.

human activated kallikrein enzyme, sequence (P03952 391-638 limits assumed): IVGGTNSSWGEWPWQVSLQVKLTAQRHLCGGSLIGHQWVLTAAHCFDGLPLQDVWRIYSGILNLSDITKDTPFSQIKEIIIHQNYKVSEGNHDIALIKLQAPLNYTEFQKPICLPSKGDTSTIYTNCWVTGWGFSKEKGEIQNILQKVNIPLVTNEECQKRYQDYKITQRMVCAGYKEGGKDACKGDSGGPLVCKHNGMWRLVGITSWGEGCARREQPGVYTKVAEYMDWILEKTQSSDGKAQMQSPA
human activated kallikrein enzyme, sequence (P03952 20-390 partner limits assumed): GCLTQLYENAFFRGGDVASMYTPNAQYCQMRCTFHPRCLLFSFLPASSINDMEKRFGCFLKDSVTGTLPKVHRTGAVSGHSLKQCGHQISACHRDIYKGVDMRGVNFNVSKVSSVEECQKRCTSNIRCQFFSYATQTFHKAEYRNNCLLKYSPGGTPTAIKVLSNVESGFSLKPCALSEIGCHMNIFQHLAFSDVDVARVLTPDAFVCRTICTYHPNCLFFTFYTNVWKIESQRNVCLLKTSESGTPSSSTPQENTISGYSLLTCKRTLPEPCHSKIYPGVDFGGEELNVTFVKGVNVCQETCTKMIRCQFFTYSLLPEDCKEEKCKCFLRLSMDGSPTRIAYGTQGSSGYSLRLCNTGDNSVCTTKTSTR

The target in the assay is human activated kallikrein enzyme (Homo sapiens, UniProt P03952). Put plainly: Inhibition of human activated plasma kallikrein, fluorogenic PFR-AMC substrate, 500 pM enzyme format. Format: biochemical. To be noted: 500 pM activated kallikrein; 300 μM PFR-AMC; 30 min preincubation; 10 min room temperature; pH 7.5; read-out: Primary Dose Response Assay: Average EC50. The essentials:
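500 pM activated kallikrein preincubated 30 min at room temperature with inhibitors in pH 7.5 Tris/EDTA/NaCl buffer with PEG-400 and Triton X-100. Reaction started with 300 μM PFR-AMC, run 10 min at room temperature; AMC fluorescence read at ex 380/em 460 nm.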
Broadly, the EC50 is the concentration at which the effect is half-maximal. On to `Cc1cc2c(N)nccc2c(C)c1CNc1cc(OCc2nc3ccc(C4CC4)cn3n2)nc(C(=O)O)n1` [Example I-486, 4-(((1-amino-5,7-dimethylisoquinolin-6-yl)methyl)amino)-6-((6-cyclopropyl-[1,2,4]triazolo[1,5-a]pyridin-2-yl)methoxy)pyrimidine-2-carboxylic acid], for which the EC50 fell in the range of 1 to 10 nM.

As to `Cc1cc2c(N)nccc2c(C)c1CNc1cc(NCc2cc3c(Cl)cccc3cn2)ncn1` [Example 328, N^4-((1-amino-5,7-dimethylisoquinolin-6-yl)methyl)-N^6-((5-chloroisoquinolin-3-yl)methyl)pyrimidine-4,6-diamine, formic acid salt], the EC50 was 1 to 10 nM.

Regarding `Cc1cc2c(N)nccc2c(C)c1CNc1nncc(NCc2ccc(Cn3cccn3)cc2)n1` [Example 376, N^5-(4-((1H-pyrazol-1-yl)methyl)benzyl)-N^3-((1-amino-5,7-dimethylisoquinolin-6-yl)methyl)-1,2,4-triazine-3,5-diamine], the half-maximal effective concentration (EC50) is under 1 nM.

`Cc1cc2c(N)nccc2c(C)c1CNc1cc2c(ccn2Cc2ccc3ncc(Cl)cc3c2)cn1` [Example 518, 6-(((1-((3-chloroquinolin-6-yl)methyl)-1H-pyrrolo[3,2-c]pyridin-6-yl)amino)methyl)-5,7-dimethylisoquinolin-1-amine]: the EC50 was over 1000 nM.

Regarding `Cc1cc2c(N)nccc2c(C)c1CNC(=O)c1cnn(Cc2cn3c(F)c(C4CC4)ccc3n2)c1` [Example 142, N-((1-amino-5,7-dimethylisoquinolin-6-yl)methyl)-1-((6-cyclopropyl-5-fluoroimidazo[1,2-a]pyridin-2-yl)methyl)-1H-pyrazole-4-carboxamide], the EC50 was under 1 nM.

On to `Cc1cc2c(N)nccc2c(C)c1CNC(=O)c1cnn(Cc2cn3c(C)cccc3n2)c1` [Example 105, N-((1-amino-5,7-dimethylisoquinolin-6-yl)methyl)-1-((5-methylimidazo[1,2-a]pyridin-2-yl)methyl)-1H-pyrazole-4-carboxamide], for which the EC50 is under 1 nM.

As to `Cc1cc2c(N)nccc2c(C)c1CNc1nsc(NCc2cn3cc(C4CC4)ccc3n2)n1` [Example 511, N^3-((1-amino-5,7-dimethylisoquinolin-6-yl)methyl)-N^5-((6-cyclopropylimidazo[1,2-a]pyridin-2-yl)methyl)-1,2,4-thiadiazole-3,5-diamine], the EC50 fell in the range of 1 to 10 nM.

In the case of `CCOC(=O)CCc1nc(NCc2c(C)cc3c(N)nccc3c2C)cc(OCc2cn3cc(C4CC4)ccc3n2)n1` [Example 274, ethyl 3-(4-(((1-amino-5,7-dimethylisoquinolin-6-yl)methyl)amino)-6-((6-cyclopropylimidazo[1,2-a]pyridin-2-yl)methoxy)pyrimidin-2-yl)propanoate], the EC50 fell in the range of 1 to 10 nM.

`Cc1cc2c(N)nccc2c(C)c1CNC(=O)c1cnn(Cc2ccc(CC(=O)N3CCCCC3)cc2)c1` [Example 223, N-((1-amino-5,7-dimethylisoquinolin-6-yl)methyl)-1-(4-(2-oxo-2-(piperidin-1-yl)ethyl)benzyl)-1H-pyrazole-4-carboxamide]: the EC50 was 1 to 10 nM.

Turning to `Cc1cc2c(N)nccc2c(C)c1CNC(=O)c1cnn(Cc2cn3cc(C4CC4C)ccc3n2)c1` (stereo not drawn) [Example 178, N-((1-amino-5,7-dimethylisoquinolin-6-yl)methyl)-1-((6-(2-methylcyclopropyl)imidazo[1,2-a]pyridin-2-yl)methyl)-1H-pyrazole-4-carboxamide], the concentration for a half-maximal effect (EC50) was under 1 nM.

With `Cc1cc2c(N)nccc2c(C)c1CNc1cnc2[nH]cc(Cc3ccc4ccccc4c3)c2c1` [Example 527, 5,7-dimethyl-6-(((3-(naphthalen-2-ylmethyl)-1H-pyrrolo[2,3-b]pyridin-5-yl)amino)methyl)isoquinolin-1-amine], the concentration for a half-maximal effect (EC50) is over 1000 nM.

For the compound `Cc1cc2c(N)nccc2c(C)c1CNC(=O)c1cnn(Cc2nc3ccccc3n2C(F)F)c1` [Example 68, N-((1-amino-5,7-dimethylisoquinolin-6-yl)methyl)-1-((1-(difluoromethyl)-1H-benzo[d]imidazol-2-yl)methyl)-1H-pyrazole-4-carboxamide], the EC50 is 10 to 100 nM.

Consider `Cc1cc2c(N)nccc2c(C)c1CNc1cc(NCc2ccc(OCC(=O)N(C)C)cc2)ncn1` [Example 377, 2-(4-(((6-(((1-amino-5,7-dimethylisoquinolin-6-yl)methyl)amino)pyrimidin-4-yl)amino)methyl)phenoxy)-N,N-dimethylacetamide], for which the EC50 is under 1 nM.

As to `Cc1cc2c(N)nccc2c(C)c1CNc1cc(OCc2csc(-c3ccccc3)n2)cnn1` [Example 430, 5,7-dimethyl-6-(((5-((2-phenylthiazol-4-yl)methoxy)pyridazin-3-yl)amino)methyl)isoquinolin-1-amine], the EC50 lay in the range of 10 to 100 nM.

Consider `Cc1cc2c(Nc3cc(OCc4ccc(CC(=O)N(C)C)cc4)ncn3)nccc2c(C)c1CN` [Example I-467, 2-(4-(((6-((6-(aminomethyl)-5,7-dimethylisoquinolin-1-yl)amino)pyrimidin-4-yl)oxy)methyl)phenyl)-N,N-dimethylacetamide], for which the EC50 was over 1000 nM.

As for `Cc1cc2c(N)nccc2c(C)c1CNc1cc(OCc2ccccc2)ncn1` [Example 449, 6-(((6-(benzyloxy)pyrimidin-4-yl)amino)methyl)-5,7-dimethylisoquinolin-1-amine], the concentration for a half-maximal effect (EC50) was over 1000 nM.

For the compound `Cc1cc2c(N)nccc2c(C)c1CNC(=O)c1cnn(Cc2nc3ccccc3s2)c1` [Example 76, N-((1-amino-5,7-dimethylisoquinolin-6-yl)methyl)-1-(benzo[d]thiazol-2-ylmethyl)-1H-pyrazole-4-carboxamide], the EC50 was 10 to 100 nM.

On to `Cc1cc2c(N)nccc2c(C)c1CNC(=O)c1cnn(Cc2cn3c(C4CC4)cccc3n2)c1` [Example 137, N-((1-amino-5,7-dimethylisoquinolin-6-yl)methyl)-1-((5-cyclopropylimidazo[1,2-a]pyridin-2-yl)methyl)-1H-pyrazole-4-carboxamide], for which the EC50 was 1 to 10 nM.

As to `Cc1cc2c(N)nccc2c(C)c1CNC(=O)c1cnn(Cc2cc3cc(Br)ccc3o2)c1` [Example 50, N-((1-amino-5,7-dimethylisoquinolin-6-yl)methyl)-1-((5-bromobenzofuran-2-yl)methyl)-1H-pyrazole-4-carboxamide], the EC50 was 1 to 10 nM.

Consider `Cc1cc2c(N)nccc2c(C)c1CNC(=O)c1cnn(Cc2ccc3c(-n4cccn4)cccc3c2)c1` [Example 112, 1-((5-(1H-pyrazol-1-yl)naphthalen-2-yl)methyl)-N-((1-amino-5,7-dimethylisoquinolin-6-yl)methyl)-1H-pyrazole-4-carboxamide], for which the EC50 was under 1 nM.

On to `CCOC(=O)Nc1nccc2c(C)c(CNC(=O)c3cnn(Cc4ccc5ncc(Cl)cc5c4)c3)c(C)cc12` [Example 132, ethyl (6-((1-((3-chloroquinolin-6-yl)methyl)-1H-pyrazole-4-carboxamido)methyl)-5,7-dimethylisoquinolin-1-yl)carbamate], for which the EC50 lay in the range of 10 to 100 nM.

On to `CCC(c1ccc(CNc2cc(NCc3c(C)cc4c(N)nccc4c3C)ncn2)cc1)n1cccn1` (stereo not drawn) [Example I-484, N^4-(4-(1-(1H-pyrazol-1-yl)propyl)benzyl)-N^6-((1-amino-5,7-dimethylisoquinolin-6-yl)methyl)pyrimidine-4,6-diamine], for which the EC50 is under 1 nM.

For `Cc1cc2c(N)nccc2c(C)c1CNc1cc(NCc2ccc(Cn3cccn3)c(C(F)(F)F)c2)ncn1` [Example 383, N^4-(4-((1H-pyrazol-1-yl)methyl)-3-(trifluoromethyl)benzyl)-N^6-((1-amino-5,7-dimethylisoquinolin-6-yl)methyl)pyrimidine-4,5-diamine], the EC50 is under 1 nM.

For the compound `C/C=C\c1ccc2nc(Cn3ccc(C(=O)NCc4c(C)cc5c(N)nccc5c4C)n3)cn2c1` [Example 177, (Z)-N-((1-amino-5,7-dimethylisoquinolin-6-yl)methyl)-1-((6-(prop-1-en-1-yl)imidazo[1,2-a]pyridin-2-yl)methyl)-1H-pyrazole-3-carboxamide], the EC50 was under 1 nM.

In the case of `Cc1cc2c(N)nccc2c(C)c1CNc1cc(NCc2ccc(Cc3nccs3)cc2)ncn1` [Example 362, N^4-((1-amino-5,7-dimethylisoquinolin-6-yl)methyl)-N^6-(4-(thiazol-2-ylmethyl)benzyl)pyrimidine-4,6-diamine], the EC50 is under 1 nM.

Consider `Cc1cc2c(N)nccc2c(C)c1CNC(=O)c1cnn(Cc2ccccn2)c1` [Example 78, N-((1-amino-5,7-dimethylisoquinolin-6-yl)methyl)-1-(pyridin-2-ylmethyl)-1H-pyrazole-4-carboxamide], for which the EC50 is 100 to 1000 nM.

As to `Cc1cc2c(N)nccc2c(C)c1CNC(=O)c1cnn(Cc2cn3c(C)c(C4CC4)ccc3n2)c1` [Example 104, N-((1-amino-5,7-dimethylisoquinolin-6-yl)methyl)-1-((6-cyclopropyl-5-methylimidazo[1,2-a]pyridin-2-yl)methyl)-1H-pyrazole-4-carboxamide], the EC50 was under 1 nM.

Turning to `Cc1cc2c(N)nccc2c(C)c1CNc1cc(NCc2ccc(Cn3ccccc3=O)cc2)ncn1` [Example 237, 1-(4-(((6-(((1-amino-5,7-dimethylisoquinolin-6-yl)methyl)amino)pyrimidin-4-yl)amino)methyl)benzyl)pyridin-2(1H)-one], the 50% effective concentration (EC50) was under 1 nM.

Turning to `Cc1cc2c(N)nccc2c(C)c1CNC(=O)c1cn(Cc2ccc(CC(=O)N3CC4CC4C3)cc2)nc1F` (stereo not drawn) [Example I-477, 1-(4-(2-(3-azabicyclo[3.1.0]hexan-3-yl)-2-oxoethyl)benzyl)-N-((1-amino-5,7-dimethylisoquinolin-6-yl)methyl)-3-fluoro-1H-pyrazole-4-carboxamide], the concentration giving a half-maximal response (EC50) is under 1 nM.

As for `COc1ccc2cc(CN(C)c3cc(NCc4c(C)cc5c(N)nccc5c4C)ncn3)ccc2c1` [Example 318, N^4-((1-amino-5,7-dimethylisoquinolin-6-yl)methyl)-N^6_((6-methoxynaphthalen-2-yl)methyl)-N^6-methylpyrimidine-4,6-diamine], the EC50 lay within 100 to 1000 nM.
